The source of these data is US4271170A, “Pyridine derivatives” (Ono Pharmaceutical Co., Ltd.,, priority 1978, dated 1981).

pIC50: −log10 of the molar value. Structures can show the parent of a compound that is named as a salt.

The target of one test is T1, thromboxane synthetase from rabbit platelet microsomes (Oryctolagus cuniculus, UniProt G1TAZ9).
T1 construct: thromboxane synthetase from rabbit platelet microsomes; from tissue; host or cells: rabbit platelet microsomes
T1 sequence (G1TAZ9 1-530): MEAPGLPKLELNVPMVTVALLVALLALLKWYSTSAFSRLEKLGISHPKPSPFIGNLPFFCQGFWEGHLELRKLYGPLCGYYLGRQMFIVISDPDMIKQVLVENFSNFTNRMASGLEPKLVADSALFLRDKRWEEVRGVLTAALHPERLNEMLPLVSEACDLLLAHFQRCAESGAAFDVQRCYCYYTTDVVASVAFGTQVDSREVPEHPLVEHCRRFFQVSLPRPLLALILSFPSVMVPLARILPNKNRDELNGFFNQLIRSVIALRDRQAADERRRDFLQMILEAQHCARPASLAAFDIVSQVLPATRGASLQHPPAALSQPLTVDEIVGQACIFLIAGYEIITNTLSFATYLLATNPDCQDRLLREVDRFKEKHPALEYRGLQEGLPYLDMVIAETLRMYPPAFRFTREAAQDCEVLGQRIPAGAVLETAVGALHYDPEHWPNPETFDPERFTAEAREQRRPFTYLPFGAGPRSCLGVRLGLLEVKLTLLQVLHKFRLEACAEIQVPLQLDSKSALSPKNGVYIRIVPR
The experiment in a line: inhibition of thromboxane synthetase from rabbit platelet microsomes (conversion of prostaglandin H2 into thromboxane B2). The class given is biochemical.
Conditions: not given
As for `CCOC(=O)C(C)Oc1ccc(Cc2cccnc2)cc1` (centres unmarked) [2-[4-(3-Pyridylmethyl)phenoxy]propionic acid ethyl ester], the pIC50 was 6.19 to 8.52.

Still in this test, the particulars now being: rabbit platelet microsomes; one common range stated for all listed compounds; read-out: molar concentration producing a 50% inhibition of thromboxane synthetase.
Consider `CCOC(=O)/C(C)=C/c1ccc(Cc2cccnc2)c(C)c1` [(E)-2-Methyl-3-[3-Methyl-4-(3-pyridylmethyl)phenyl]acrylic acid ethyl ester], for which the pIC50 is 6.19 to 8.52.
On to `CC(C)(Sc1ccc(Cc2cccnc2)cc1)C(=O)O` [2-Methyl-2-[4-(3-pyridylmethyl)phenylthio]propionic acid hydrochloride], for which the pIC50 is 6.19 to 8.52.
`C/C(=C\c1ccc(Cc2cccnc2)s1)C(=O)O` [(E)-5-(3-Pyridylmethyl)-2-(2-carboxy-1-propenyl(thiophene hydrochloride]: the pIC50 is 6.19 to 8.52.
Turning to `COC(=O)/C(Br)=C/c1ccc(Cc2cccnc2)cc1` [(Z)-2-Bromo-3-[4-(3-pyridylmethyl)phenyl]acrylic acid methyl ester], the pIC50 is 6.19 to 8.52.
Consider `CCOC(=O)CCc1ccc(Cc2cccnc2)cc1` [3-[4-(3-Pyridylmethyl)phenyl]propionic acid ethyl ester], for which the pIC50 was 6.19 to 8.52.
With `O=C(O)Cc1ccc(Cc2cccnc2)cc1` [4-(3-Pyridylmethyl)phenylacetic acid hydrochloride], the pIC50 is 6.19 to 8.52.
On to `O=C(O)c1ccc(Cc2cccnc2)cc1` [4-(3-Pyridylmethyl)benzoic acid hydrochloride], for which the pIC50 is 6.19 to 8.52.
Same read-out and setting: to `C/C(=C\c1ccc(C(C)c2cccnc2)cc1)C(=O)O` (centres unmarked) [(E)-2-Methyl-3-[4-(1-3'-pyridylethyl)phenyl]acrylic acid hydrochloride] belongs 6.19 to 8.52.
The same measure, in the same setting: for `CCOC(=O)/C(C)=C/c1cccc(Cc2cccnc2)c1` [(E)-2-Methyl-3-[3-(3-pyridylmethyl)phenyl]acrylic acid ethyl ester] the value was 6.19 to 8.52; for `O=C(O)/C=C/c1ccc(Cc2cccnc2)cc1` [(E)-3-[4-(3-Pyridylmethyl)phenyl]acrylic acid hydrochloride], 6.19 to 8.52.
For `CCSC(=O)/C(C)=C/c1ccc(Cc2cccnc2)cc1` [(E)-2-Methyl-3-[4-(3-pyridylmethyl)phenyl]thioacrylic S-acid S-ethyl ester hydrochloride], the pIC50 was 6.19 to 8.52.
As to `O=C(O)COc1ccc(Cc2cccnc2)cc1` [2-[4-(3-Pyridylmethyl)phenoxy]acetic acid hydrochloride], the pIC50 is 6.19 to 8.52.
With `O=C(O)/C=C/c1ccc(C(O)c2cccnc2)cc1` (centres unmarked) [(E)-3-[4-(3-Pyridylhydroxymethyl)phenyl]acrylic acid hydrochloride], the pIC50 is 6.19 to 8.52.
Consider `Oc1ccc(Cc2cccnc2)cc1` [4-(3-pyridylmethyl)phenol hydrochloride, 4-(3-Pyridylmethyl)phenol hydrochloride], for which the pIC50 was 6.19 to 8.52.
As to `CC(C)(Oc1ccc(Cc2cccnc2)cc1)C(=O)O` [2-Methyl-2-[4-(3-pyridylmethyl)phenoxy]propionic acid hydrochloride], the pIC50 is 6.19 to 8.52.
Regarding `CCOC(=O)COc1ccc(Cc2cccnc2)cc1` [4-(3-Pyridylmethyl)phenoxyacetic acid ethyl ester], the pIC50 is 6.19 to 8.52.
Same read-out and setting: for `Cc1cc(/C=C/C(=O)O)ccc1Cc1cccnc1` [(E)-3-[3-Methyl-4-(3-pyridylmethyl)phenyl]acrylic acid hydrochloride] the value was 6.19 to 8.52; for `CCOC(=O)C(C)Cc1ccc(Cc2cccnc2)cc1` (centres unmarked) [2-Methyl-3-[4-(3-pyridylmethyl)phenyl]propionic acid ethyl ester], 6.19 to 8.52.
Consider `C/C(=C\c1ccc(Cc2cnccc2C)cc1)C(=O)O` [(E)-2-Methyl-3-[4-(4-methyl-3-pyridylmethyl)phenyl]acrylic acid hydrochloride], for which the pIC50 is 6.19 to 8.52.
Consider `O=C(O)/C(Br)=C/c1ccc(Cc2cccnc2)cc1` [(2)-2-Bromo-3-[4-(3-pyuridylemthyl)phenyl]acrylic acid hydrochloride], for which the pIC50 is 6.19 to 8.52.
In the case of `O=C(O)/C=C/c1ccc(Cc2cccnc2)s1` [(E)-5-(3-Pyridylmethyl)-2-(2-carboxyvinyl)thiophene hydrochloride], the pIC50 is 6.19 to 8.52.
As to `CC(C)(Cc1ccc(Cc2cccnc2)cc1)C(=O)O` [2,2-Dimethyl-3-[4-(3-pyridylmethyl)phenyl]propionic acid hydrochloride], the pIC50 is 6.19 to 8.52.
On the same count and under the same terms, for `CC(Cc1ccc(C(C)c2cccnc2)cc1)C(=O)O` (centres unmarked) [2-Methyl-3-[4-(1-3'-pyridylethyl)phenyl]propionic acid hydrochloride] the value was 6.19 to 8.52; for `C/C(=C\c1ccc(Cc2cccnc2)cc1)C(=O)Oc1ccccc1` [(E)-2-Methyl-3-[4-(3-pyridylmethyl)phenyl]acrylic acid phenyl ester], 6.19 to 8.52.
Turning to `C/C(=C\c1ccc(Cc2cccnc2)cc1)C(=O)Oc1cccc(C(F)(F)F)c1` [(E)-2-Methyl-3-[4-(3-pyridylmethyl)phenyl]acrylic acid 3-trifluoromethylphenyl ester], the pIC50 is 6.19 to 8.52.
In the case of `O=C(O)CCc1ccc(Cc2cccnc2)cc1` [3-[4-(3-Pyridylmethyl)phenyl]propionic acid hydrochloride], the pIC50 is 6.19 to 8.52.
Consider `C/C(=C\c1ccc(Cc2cccnc2)cc1)C(=O)Oc1ccccc1C` [(E)-2-Methyl-3-[4-(3-pyridylmethyl)phenyl]acrylic acid 2-methylphenyl ester], for which the pIC50 was 6.19 to 8.52.
In the case of `CC(Cc1ccc(Cc2cccnc2)cc1)C(=O)O` (centres unmarked) [2-Methyl-3-[4-(3-pyridylmethyl)phenyl]propionic acid hydrochloride], the pIC50 was 6.19 to 8.52.
As to `C/C(=C\c1ccc(Cc2cccnc2)cc1)C(=O)OCc1ccc(-c2ccccc2)cc1` [(E)-2-Methyl-3-[4-(3-pyridylmethyl)phenyl]acrylic acid biphenylmethyl ester], the pIC50 is 6.19 to 8.52.
On the same count and under the same terms, for `C/C(=C\c1ccc(Cc2cccnc2)cc1)C(=O)OCc1ccccc1` [(E)-2-Methyl-3-[4-(3-pyridylmethyl)phenyl]acrylic acid benzyl ester] the value was 6.19 to 8.52.
For `C/C(=C\c1ccc(Cc2cccnc2)c(C)c1)C(=O)O` [(E)-2-Methyl-3-[3-methyl-4-(3-pyridylmethyl)phenyl]acrylic acid hydrochloride], the pIC50 is 6.19 to 8.52.
`C/C(=C\c1ccc(Cc2cccnc2)cc1)C(=O)O` [(E)-2-Methyl-3-[4-(3-pyridylmethyl)pehnyl]acrylic acid hydrochloride]: the pIC50 is 6.19 to 8.52.
On to `C/C(=C\C(=O)O)c1ccc(Cc2cccnc2)cc1` [(E)-3-[4-(3-Pyridylmethyl)phenyl]-2-butenoic acid hydrochloride], for which the pIC50 was 6.19 to 8.52.
Same read-out and setting: to `CC/C(=C\c1ccc(Cc2cccnc2)cc1)C(=O)O` [(E)-2-Ethyl-3-[4-(3-pyridylmethyl)phenyl]acrylic acid hydrochloride] belongs 6.19 to 8.52; to `CC(Oc1ccc(Cc2cccnc2)cc1)C(=O)O` (centres unmarked) [2-[4-(3Pyridylmethyl)phenoxy]propionic acid hydrochloride], 6.19 to 8.52; to `C/C(=C\c1cccc(Cc2cccnc2)c1)C(=O)O` [(E)-2-Methyl-3-[3-(3-pyridylmethyl)phenyl]acrylic acid hydrochloride], 6.19 to 8.52.
In the case of `CC(CC(=O)O)c1ccc(Cc2cccnc2)cc1` (centres unmarked) [3-[4-(3-Pyridylmethyl)phenyl]butyric acid hydrochloride], the pIC50 is 6.19 to 8.52.

The test system of a further test is thromboxane synthetase.
Assay: not given
As to conditions: prior-art compounds, literature reports as judged by the applicant; cited from earlier work.
`CC(Cc1ccc(O)c(O)c1)C(C)Cc1ccc(O)c(O)c1` (centres unmarked) [nordihydroguaiaretic acid]: the “inhibitory activity on thromboxane synthetase” value (from here on “inhibitory activity”) is on record as “very weak”.
Consider `Cn1ccnc1` [1-methylimidazole], for which the “inhibitory activity” value was “very weak”.
`CCCCCCCCC1C2COC(C2)C1CCCCCCC(=O)O` (centres unmarked) [9,11-epoxymethanoprostanoic acid]: the “inhibitory activity” value is reported as “very weak”.
`CCCCCC(O)C=CC1C2COC(C2)C1CC=CCCCC(=O)O` (centres unmarked) [9,11-epoxymethano-15-hydroxyprosta-5,13-dienoic acid]: the “inhibitory activity” value is given as “very weak”.
Turning to `c1c[nH]cn1` [imidazole], the “inhibitory activity” value is given as “very weak”.
With `CCCCCC(O)C=CC1C2CC(N=N2)C1CC=CCCCC(=O)O` (centres unmarked) [9,11-azo-15-hydroxyprosta-5,13-dienoic acid], the “inhibitory activity” value is “very weak”.
Take `CC(C)c1[nH]c2ccccc2c1C(=O)c1cccnc1` [Example L-8027, 2-isopropyl-3-nicotinylindole]: the “inhibitory activity” value is given as “very weak”.
Regarding “sodium p-benzyl-4-[1-oxo-2-(4-chlorobenzyl)-3-phenylpropyl]phenylphosphonate [Example N-0164]”, the “inhibitory activity” value is given as “very weak”.
`CCCCCC=CC[C@@H](C=CC=CCC=CCCCC(=O)O)OO` [HPETE, 12L-hydroperoxy-5,8,10,14-eicosatetraenoic acid]: the “inhibitory activity” value was “very weak”.
